Patent US20240285631A1, “METHODS OF TREATING VASCULAR MALFORMATIONS” (priority 2023, published 2024)
Entries after “also recorded” stand apart in the source; their conditions may differ.

Assays:
HUVECs = assay: Agilent Seahorse mitochondrial stress test in HUVECs; format: cell-based, human; set-up: dose or concentration left out as unconfirmed; conditions: HUVECs pretreated with Palbociclib, vs control cells
Text: FIG. 4C illustrates representative traces of oxygen consumption rate (OCR) measured by Seahorse assay of control vs. CDK4/6i-treated HUVECs in response to oligomycin (ATP synthase inhibitor), BAM15 (mitochondrial uncoupler) and Antimycin A/Rotenone (mitochondrial respiratory chain complex III and I inhibitors) (N=6 independent experiments, Data are mean±SEM **p≤0.01, ns p>0.05). Two-way ANOVA for independent measures with Bonferonni's correction for statistical analysis. p<0.05 was considered statistically significant. The normality and homogeneity of variances assumptions were tested using Shapiro-Wilk test (p>0.05) and Mauchly's test of sphericity respectively. Quantification of mitochondrial activity expressed as basal OCR (FIG. 4D) and respiratory capacity (FIG. 4E) in control vs. CDK4/6i-treated HUVECs. […]
HUVECs (70% confluent) were treated with Palbociclib (3 mg/ml) for 12 h in EGM™2-Bulletkit™ medium (CC-3156 & CC-4176, Lonza) prior to seeding onto a Seahorse 24-well tissue culture plate (Agilent Technologies) in EMB-2 media (CC-3162 Lonza) supplemented with 0.1% FBS and Palbociclib (3 mg/ml). […] Oxygen consumption rate (OCR) was measured using a Seahorse XF24 Flux Analyzer (Agilent Technologies). […] Basal respiration was calculated by subtracting the average of the first three measurements by the average of the post-Antimycin A & Rotenone measurements. […]

[1] = tested on: retinal ECs of Alk1EC^iKO-Fucci2 pups; assay: Endothelial cell cycle state in Alk1EC^iKO-Fucci2 pups; format: in vivo, mouse; conditions: Alk1EC^iKO + CDK4/6i
Text: All animal protocols and procedures were approved by the University of Virginia Animal Care and Use Committee and complied with all ethical regulations. Cdh5Cre^ERT21Rha^43 and Alk1^flox/flox were gifted from Drs. Ralf Adams and Paul Oh, respectively. R26p-Fucci2 (Fucci2) (Accession #CDB0203T)^44 and C57bl/6 mice were purchased from Riken and Jax, respectively. Cdh5Cre^ERT2 mice were crossed with Alk1^flox/flox mice (6-8-week-old) to generate Alk1EC^iKO pups. Cre activity in Alk1EC^iKO was induced in pups at P3 via a single intraperitoneal (i.p.) injection of Tamoxifen (Tx; Sigma T5648, […] of 4 mg/ml, resuspended in 10% ethanol and 90% corn oil). Alk1^flox/flox littermates were used as controls. Alk1EC^iKO mice were crossed with Fucci2 mice to generate Alk1EC^iKO-Fucci2 pups.

[2] = tested on: vascular anomalies in lungs and intestinal tracts of anti-BMP9/10-treated pups; assay: Blue latex dye vascular perfusion of lungs and duodenum in BMP9/10 Abs-treated pups; format: in vivo, mouse; conditions: P7, BMP9/10 Abs + CDK4/6i
Text: Vascular perfusion assessed using blue latex dye in lungs (FIGS. 10C-D), duodenum (FIGS. 10E-F) and brain (FIGS. 10G-H) from control, BMP9/10 Abs-treated, BMP9/10 Abs- and CDK4/6i-treated P7 animals. Lung samples have been clarified. Quantifications of intrapulmonary artery diameter (FIG. 10D) and intestinal capillary diameter (FIG. 10F). Red arrows indicate intestinal capillaries (N=3 to 7 animals/group. Data are mean±SEM, one-way ANOVA with Holm-Šidàk's multiple comparison test, **p≤0.01, *p≤0.05, ns p>0.05). […] We then analyzed the effects of BMP9/10 antibodies and CDK4/6i treatment on lungs, brains, and intestinal tracts, which are commonly affected by vascular malformations in HHT patients. To visualize vascular anomalies in these tissues, we performed intracardiac injections of blue latex silicon dye in P7 control, and anti-BMP9/10-treated pups, with or without CDK4/6i treatment following the dosing protocol as shown in FIG. 2A. […] P7 pups were deeply anesthetized with isoflurane using a nose cone and a thoracotomy was performed to expose the heart. For brain and gastrointestinal vasculature perfusions, the right atrium was cut and an insulin syringe (27 G) pre-filled with 1 ml of blue latex (VWR 470024-612) was inserted in the apex of the left ventricle to perfuse approximately 600 ml of latex. […]

[3] = tested on: brain vascular anomalies in adult Alk1 mutant animals; assay: Brain vasculature of adult Alk1 mutant animals (HHT model); format: in vivo, mouse; conditions: 3 doses 120 mg/kg oral gavage at day 7, 9 and 11 after tamoxifen, 3 weeks after induction
Text: Euthanized animals have been perfused with colored reagent to visualize the blood vessels.

ENDOGLIN = ENDOGLIN expression in retinal venous ECs of Alk1EC^iKO mice; format: in vivo, mouse; conditions: both mRNA and protein levels
Experimental: FIG. 8A illustrates Western Blot analysis of the phosphorylation of the indicated proteins in response to VEGF-A (1.5 nM) in control vs. CDK4/6i treated HUVECs. FIG. 8B illustrates Western Blot analysis of the phosphorylation of the indicated proteins in response to BMP9 (10 ng/ml) in control vs. CDK4/6i-treated HUVECs. FIG. 8C illustrates quantification of phosphorylation normalized to total protein levels. (N=5 independent experiments, Data are mean±SEM, Mann-Whitney U test: *p<0.05). […] FIG. 8E illustrates ENDOGLIN (green) and IB4 (white) staining of retinal flat-mounts from P5 Alk1^fl/fl, Alk1^fl/fl treated with CDK4/6i, Alk1EC^iKO, and Alk1EC^iKO treated with CDK4/6i animals (A: Artery; V: Vein). FIG. 8F illustrates quantification of fluorescence intensity of ENDOGLIN staining in (FIG. 8E) retinal venous vessels of the indicated animals (N=4 retinas per group. Data are mean±SEM, one-way ANOVA with Tukey's multiple comparison test: *p<0.05; ns p>0.05). FIG. 8G illustrates timeline used for Tx injection, and CDK4/6i and FLT1 blocking antibody treatment of Alk1EC^iKO pups. […]
Eyes from P7 pups were pre-fixed in 4% PFA for 20 min at room temperature (RT). […] Quantification of vascular progression, density, AVM numbers and vessel diameters in the retinal vasculature were performed with Image J software.

[4] = tested on: AVMs induced by BMP9/10 blocking antibodies; assay: Retinal vasculature analysis in BMP9/10 blocking antibody mouse model of HHT; format: in vivo; conditions: BMP9/10 Abs P2 and P4
[5] = tested on: retinal vascular development of control pups; assay: CDK4/6i treatment alone in control C57BL/6 pups, retinal vasculature; format: in vivo, mouse; conditions: P7 control pups, no BMP9/10 Abs
Text: FIGS. 10A and 10B illustrate the timeline used for CDK4/6i treatment alone in C57BL/6 pups and representative images showing retinal vasculature of P7 animals labelled with IB4 (N=3 to 4 animals/group). Vascular perfusion assessed using blue latex dye in lungs (FIGS. 10C-D), duodenum (FIGS. 10E-F) and brain (FIGS. 10G-H) from control, BMP9/10 Abs-treated, BMP9/10 Abs- and CDK4/6i-treated P7 animals. Lung samples have been clarified. Quantifications of intrapulmonary artery diameter (FIG. 10D) and intestinal capillary diameter (FIG. 10F). Red arrows indicate intestinal capillaries (N=3 to 7 animals/group. Data are mean±SEM, one-way ANOVA with Holm-Šidàk's multiple comparison test, **p≤0.01, *p≤0.05, ns p>0.05). Quantification of left middle cerebral artery (MCA) and basilar artery (BA) diameter (FIG. 10H). (N=5 to 9 animals/group. Data are mean±SEM, one-way ANOVA with Holm-Sidak's multiple comparison test, ns p>0.05). Scale bars: (FIGS. 10C and 10G): 2 mm, (E): 1 mm.
Thus, to test whether the use of pharmacological cell cycle modulators could prevent the development of AVMs in a murine model of HHT, we used Palbociclib, a CDK4 and CDK6 inhibitor (CDK4/6i) that blocks the transition from G1 to S state^8. Pups were injected at P2 and P4 with BMP9/10 antibodies, followed by Palbociclib treatment starting at P4, then at P5 and P6 (FIG. 2A).

## CC(=O)c1c(C)c2cnc(Nc3ccc(N4CCNCC4)cn3)nc2n(C2CCCC2)c1=O [Palbociclib, 6-acetyl-8-cyclopentyl-5-methyl-2-[5-(1-piperazinyl)pyridine-2-ylamino]pyrido[2,3-d]pyrimidin-7(8H)-one]
HUVECs
  mitochondrial basal respiration (basal OCR): significantly lower
  respiratory capacity (OCR): significantly lower
[1]; tamoxifen P3, Palbociclib P4, P5
  percentage of ECs residing in the S/G2/M phases: significantly lower in arteries and capillaries
[1]; arteries and capillaries
  proportion of ECs in late G1 state: higher proportion of ECs in late G1 state
[1]; veins
  cell cycle state of venous ECs: no significant effects on venous ECs
[2]; duodenum
  vasodilation of small capillaries perfusing the duodenum: not prevented by CDK4/6i treatment
[2]; lungs
  lung vascular anomalies and intrapulmonary artery diameter: significantly less vascular anomalies and intrapulmonary microvasculature vasodilation
[3]
  brain vascular anomalies in adult Alk1 mutant animals: regressed anomalies observed in the brain vasculature; also recorded: regressed brain vascular anomalies
ENDOGLIN
  expression of ENDOGLIN in venous ECs: promoted the expression of ENDOGLIN in venous ECs
[4]; CDK4/6i P4-P6, P7
  arterial vessel diameter: not arterial vessel diameters
  retinal vascular density: less hyperdense retinal vascular plexi
  retinal vascular progression: normalized retinal vascular progression
  venous vessel diameter: normalized
[4]; CDK4/6i oral gavage 120 mg/kg/d P4, P5, P6, retinas at P7, vs BMP9/10 Abs only
  AV shunt number per retina: fewer AV shunts
[5]
  retinal vascular development under CDK4/6i treatment by itself: did not impair retinal vascular development
